Measured values as given in publication PMC9490060, “Synthesis and evaluation of anticancer activity of quillaic acid derivatives: A cell cycle arrest and apoptosis inducer through NF-κB and MAPK pathways” (Frontiers in Chemistry, 2022).

Key:
[1] = system: SW620 (human colorectal cancer cell line); assay: MTT anti-proliferative assay, SW620; assay type: cell-based; conditions: means ± SD, n = 3
Bcl-2 = assay: Western blot, Bcl-2 expression; assay type: cell-based, human; conditions: HCT116, 10 μM, 24 h
Procedure: The Bcl-2 protein family (including the anti-apoptotic protein Bcl-2 and the pro-apoptotic protein Bax) is a group of key apoptotic proteins that play an important role in the regulation of apoptosis ([Han et al., 2013]; [Zhang and Saghatelian, 2013]; [Zheng et al., 2021]). HCT116 cells were treated with different concentrations (2.5, 5, and 10 μM) of E to detect the expression of Bax and Bcl-2 proteins.
(§1) FIGURE 7 Effect of compound E on the levels of Bax, and Bcl-2 in HCT116 cells. Cells were pretreated with the various concentrations of compound E (2.5, 5 and 10 μM) for 24 h. The expression of Bax, and Bcl-2 were analyzed by Western blot. ***p < 0.001, **p < 0.01, *p < 0.05 vs. control group. The error bars represent the mean ± SD for three independent experiments.
HCT116 cells were cultured with different concentrations of compound E for 24 h. Then, the floating cells were collected and washed twice with ice-cold PBS. Add cold RIPA buffer. After the cells were lysed on ice for 20 min, the lysate was centrifuged at 12,000 rpm for 15 min at 4°C. The BCA method determines the protein concentration. Separated by SDS/PAGE electrophoresis and transferred to a nitrocellulose filter membrane for Western blot analysis. The membrane was blocked with PBS containing 5% skim milk at room temperature for 2 h. […] The protein is detected by electrochemiluminescence (Bio-Rad, CA, United State).

JNK = assay: Western blot, MAPK signaling pathway: JNK; assay type: cell-based, human; conditions: HCT116, 10 μM, 24 h
Text: (§2) Extracellular signal-regulated kinases are the most closely related MAPK. MAPK, a family of serine/threonine protein kinases, is also an important transmitter of signaling from the cell surface to the nucleus, and it is involved in the regulation of many physiological processes, including apoptosis ([Bian et al., 2021]). The MAPK pathway has been implicated in regulating tumor angiogenesis, proliferation, metastasis and invasion ([Ko et al., 2017]). MAPK family is mainly composed of ERK, p38 and JNK subfamily.
as §1, with “9” for “7”, “[…]” for “the levels of Bax, and Bcl-2”, “phospho-ERK, ERK, phospho-JNK, JNK, phospho-p38, p38” for “Bax, and Bcl-2”
(§3) HCT116 cells were cultured with different concentrations of compound E for 24 h. Then, the floating cells were collected and washed twice with ice-cold PBS. Add cold RIPA buffer. After the cells were lysed on ice for 20 min, the lysate was centrifuged at 12,000 rpm for 15 min at 4°C. The BCA method determines the protein concentration. […] The protein is detected by electrochemiluminescence (Bio-Rad, CA, United State).

ERK = assay: Western blot, MAPK signaling pathway: ERK; assay type: cell-based, human; conditions: HCT116, 10 μM, 24 h
Text: as §2
as §1, with “9” for “7”, “[…]” for “the levels of Bax, and Bcl-2”, “phospho-ERK, ERK, phospho-JNK, JNK, phospho-p38, p38” for “Bax, and Bcl-2”
as §3

HCT116 cells = assay: H&E staining of morphological changes; assay type: cell-based, human; conditions: HCT116, 2.5, 5, 10 μM, 24 h
Procedure: Induction of apoptosis is the mechanism of action of many anti-proliferative drugs. When cells undergo apoptosis, they generally also undergo morphological changes ([Liu et al., 2009]). Therefore, we used H&E staining to assess morphological changes in the cells.
FIGURE 5 Cell morphological alterations and nuclear changes associated with HCT116 cells after incubation with varying concentrations E (0, 2.5, 5, 10 μM) for 24 h were assessed by staining with H&E and visualized by microscopy.

CC1(C)CC[C@]2(C(=O)OCCn3nnnc3-c3ccccc3)[C@H](O)C[C@]3(C)C(=CC[C@@H]4[C@@]5(C)CC[C@H](O)[C@@](C)(C=O)[C@@H]5CC[C@]43C)[C@@H]2C1 [Compound E, 2-(5-phenyl-1H-tetrazol-1-yl)ethyl (4aR,5R,6aS,6bR,8aR,9S,10S,12aR,12bR,14bS)-9-formyl-5,10-dihydroxy-2,2,6a,6b,9,12a-hexamethyl-1,3,4,5,6,6a,6b,7,8,8a,9,10,11,12,12a,12b,13,14b-octadecahydropicene-4a (2H)-carboxylate]
IC50 values SW620 ([1]; 48 h incubation): strong activity
IC50 ([1]; Homo sapiens, SW-620, 48 h incubation): 4.69 ± 1.1 µM
level of Bcl-2 (Bcl-2): decreased
phosphorylation level of JNK (JNK): down-regulated
phosphorylation level of ERK (ERK): down-regulated
morphological changes (H&E staining) (HCT116 cells): significant apoptotic morphological changes
